Data published in ChEMBL document CHEMBL5604063, “ASAP - DENV-2 NS2B-NS3 protease fluorescence dose response” (2024).
Several values for one entry are separate records, joined by “and”; a condition that tells them apart may be missing. Equal values may be shown once.

Molecular target: Genome polyprotein (dengue virus type 2, UniProt P29990)
Format: functional, Thailand/16681/1984

Chain of Genome polyprotein (P29990 1346-1475 limits assumed): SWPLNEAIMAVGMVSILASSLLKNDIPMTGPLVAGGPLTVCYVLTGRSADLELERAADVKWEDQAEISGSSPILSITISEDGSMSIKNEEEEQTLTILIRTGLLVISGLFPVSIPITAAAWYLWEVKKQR
Chain of Genome polyprotein (P29990 1476-2093 limits assumed): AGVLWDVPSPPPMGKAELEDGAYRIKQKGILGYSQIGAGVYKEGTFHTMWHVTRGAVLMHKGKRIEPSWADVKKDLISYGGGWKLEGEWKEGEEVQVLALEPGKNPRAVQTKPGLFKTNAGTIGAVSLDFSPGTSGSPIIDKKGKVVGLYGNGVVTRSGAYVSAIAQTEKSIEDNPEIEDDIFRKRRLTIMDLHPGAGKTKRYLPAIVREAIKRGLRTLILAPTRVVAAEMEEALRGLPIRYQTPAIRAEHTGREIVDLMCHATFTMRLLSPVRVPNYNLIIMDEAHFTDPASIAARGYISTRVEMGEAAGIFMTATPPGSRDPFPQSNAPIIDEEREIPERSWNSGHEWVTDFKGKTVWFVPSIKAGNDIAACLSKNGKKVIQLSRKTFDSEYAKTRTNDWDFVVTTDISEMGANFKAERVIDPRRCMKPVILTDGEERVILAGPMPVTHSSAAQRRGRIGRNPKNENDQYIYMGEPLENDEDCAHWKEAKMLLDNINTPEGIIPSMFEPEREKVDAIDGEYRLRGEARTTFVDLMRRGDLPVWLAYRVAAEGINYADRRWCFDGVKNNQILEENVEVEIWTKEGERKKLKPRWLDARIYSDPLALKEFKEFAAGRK

| Structure (SMILES) | IC50 |
| --- | --- |
| Cc1ncsc1C(=O)N[C@H](C(=O)Nc1cccc(CN)c1)c1ccc(OCc2ccccc2)cc1 | > 99.5 µM |
| O=C(O)c1cc(Cl)ccc1NS(=O)(=O)c1ccc(OCc2ccncc2)cc1 | > 99.5 µM |
| Cc1noc(C)c1C(=O)N[C@@H](C(=O)Nc1cccc(CN)c1)c1ccc(OCc2ccccc2)cc1 | > 99.5 µM |
| O=C(NCCO)c1cc(Cl)ccc1NS(=O)(=O)c1ccc(Oc2ccccc2Cl)cc1 | 68 µM |
| NCc1cccc(NC(=O)[C@H](NC(=O)C2CCC2)c2ccc(OCc3ccccc3)cc2)c1 | > 99.5 µM |
| N[C@H]1CCc2cc(-c3ccn(-c4ccccc4)n3)ccc2C1 | > 99.5 µM |
| O=C(O)c1cc2c(cc1NS(=O)(=O)c1ccc(F)cc1)CCC2 | > 99.5 µM |
| CCc1ccccc1COc1ccc(S(=O)(=O)Nc2ccc(Cl)cc2C(=O)O)cc1 | 6.5 µM |
| NCc1cccc(NC(=O)C[C@H](NC(=O)OCc2ccccc2)c2ccc(OC(F)(F)F)cc2)c1 | 42.9 µM and 44.6 µM |
| N[C@]12CCC[C@](C(=O)NCc3ccc4c(c3)CCNCC4)(CC1)C2 | > 99.5 µM |
| NCc1cccc(NC(=O)C[C@H](NC(=O)OCc2ccccc2)c2ccc(Cl)c(Br)c2)c1 | 22.8 µM and 22.9 µM and 12.9 µM and 12.6 µM |
| CCn1nccc1-c1cccc([C@@H](NC(=O)OCc2ccccc2)C(=O)Nc2cccc(CN)c2)c1 | > 99.5 µM |
| NCCNC(=O)c1cc(Cl)ccc1NS(=O)(=O)c1ccc(Oc2ccccc2Cl)cc1 | > 99.5 µM |
| O=C(O)c1cc(Cl)ccc1NS(=O)(=O)c1ccc(OCc2nnnn2C2CCC2)cc1 | > 99.5 µM |
| NCc1cccc(NC(=O)[C@H](NC(=O)OCc2ccccc2)c2ccc(Br)c(Cl)c2)c1 | 11 µM and 8.42 µM and 6.79 µM and 9.88 µM and 12.5 µM and 8.05 µM |
| NCc1cccc(NC(=O)[C@H](NC(=O)OCc2ccccc2)c2ccc(Br)c(F)c2)c1 | 88.2 µM |
| O=C(O)c1cc(Cl)ccc1NS(=O)(=O)c1ccc(OCc2cncnc2)cc1 | > 99.5 µM |
| O=C(O)c1cc(Cl)ccc1NS(=O)(=O)c1ccc(NC2CCNCC2)nc1 | > 99.5 µM |
| CCn1c(=O)c(N2C[C@H]3C[C@@]3(C(F)F)C2)nc2ccccc21 | > 99.5 µM |
| Cc1cc(F)cc(N(C)C(=O)c2ccc(C3(CN)CC3)cc2)c1 | > 99.5 µM |
| NCc1cccc(NC(=O)[C@H]2[C@H]3CCCC[C@H]3[C@@H]2NC(=O)OCc2ccccc2)c1 | 95.5 µM |
| Cc1n[nH]cc1CC(=O)N1CCCC12CCN(C(=O)c1ccnc(CO)c1)CC2 | > 99.5 µM |
| NCc1cccc(NC(=O)C[C@H](NC(=O)OCc2ccccc2)c2ccc(Cl)c(F)c2)c1 | 97.6 µM |

| Structure (SMILES) | IC50 |
| --- | --- |
| CC[C@H]1CN(C(=O)c2ccc(C3(CN)CC3)cc2)Cc2ccccc21 | > 99.5 µM |
| Cn1cnc2c1CN(Cc1ccc3c(c1)CCNCC3)CC2 | > 99.5 µM |
| CCn1c(=O)c(N2CC[C@H](N3CCCC3=O)C2)nc2ccccc21 | > 99.5 µM |
| CCn1c(=O)c(N2CC[C@H](c3cnccn3)C2)nc2ccccc21 | > 99.5 µM |
| NCc1cccc(NC(=O)[C@@H]2Cc3ccc(OCc4ccccc4)cc3CN2C(=O)OCc2ccccc2)c1 | 86.7 µM |
| NCC1(c2ccc(C(=O)N3CCc4scc(Br)c4C3)cc2)CC1 | > 99.5 µM |
| NCc1cccc(CNC(=O)[C@@H](NC(=O)OCc2ccccc2)c2ccc(OCc3ccccc3)cc2)n1 | > 99.5 µM |
| NCc1cccc(NC(=O)[C@]2(NC(=O)OCc3ccccc3)COc3cc(Br)ccc32)c1 | > 99.5 µM |
| CCn1c(=O)c(N2C[C@H]3COC[C@@]3(C)C2)nc2ccccc21 | > 99.5 µM |
| CC(C)CNC(=O)c1cc(Cl)ccc1C=Cc1ccc(Oc2ccccc2Cl)cc1 | > 99.5 µM |
| NCc1ccc(CNC(=O)[C@@H](NC(=O)OCc2ccccc2)c2ccc(OCc3ccccc3)cc2)cc1 | 16 µM and 8.53 µM and 8.03 µM |
| CCn1c(=O)c(N2CC[C@H](c3ccccc3)C2)nc2ccccc21 | > 99.5 µM |
| CCOC(=O)c1cc(C(=O)N[C@H](C(=O)Nc2cccc(CN)c2)c2ccc(OCc3ccccc3)cc2)n(C)n1 | 24.3 µM and 24.8 µM |
| Cc1occ(C(F)(F)F)c1C(=O)N[C@H](C(=O)Nc1cccc(CN)c1)c1ccc(OCc2ccccc2)cc1 | > 99.5 µM |
| NCc1cccc(NC(=O)[C@H](NC(=O)c2ccccc2Cl)c2ccc(OCc3ccccc3)cc2)c1 | 45.8 µM |
| O=C(NC1CCCCC1)c1cc(Cl)ccc1NS(=O)(=O)c1ccc(Oc2ccccc2Cl)cc1 | 13.7 µM |
| NCc1cccc(NC(=O)[C@@H](NC(=O)OCc2ccccc2)c2ccc(OCc3ncccn3)cc2)c1 | > 99.5 µM |
| NCc1cccc(NC(=O)[C@H]2[C@H]3CCCCC[C@H]3[C@H]2NC(=O)OCc2ccccc2)c1 | 23.2 µM and 34.2 µM and 10.4 µM and 9.2 µM and 8.71 µM |
| Cc1cc(-c2cccc([C@@H](NC(=O)OCc3ccccc3)C(=O)Nc3cccc(CN)c3)c2)ccn1 | > 99.5 µM |
| NCc1cccc(NC(=O)[C@H](NC(=O)OCc2ccccc2)c2ccc(CO)cc2)c1 | > 99.5 µM |
| NCc1cccc(NC(=O)[C@H](NS(=O)(=O)c2ccc(Oc3ccccc3Cl)cc2)c2ccc(OCc3ccccc3)cc2)c1 | > 99.5 µM |
| CCCCCN(C)C(=O)c1cc(Cl)ccc1NS(=O)(=O)c1ccc(Oc2ccccc2Cl)cc1 | 17.8 µM |
| Cc1ccc([C@H]2[C@H](C)CN2C(=O)c2ccc(C(F)(F)CN)cc2)cc1 | > 99.5 µM |

| Structure (SMILES) | IC50 |
| --- | --- |
| CN(C)CCc1ccc(CNC(=O)[C@@H](NC(=O)OCc2ccccc2)c2ccc(OCc3ccccc3)cc2)cc1 | > 99.5 µM |
| O=C(O)c1ccc(F)c(F)c1NS(=O)(=O)c1ccc(Oc2ccccc2Cl)cc1 | 31.1 µM |
| O=C(N[C@@H](C(=O)NCc1cccc2c1CCNC2)c1ccc(OCc2ccccc2)cc1)OCc1ccccc1 | 53.5 µM |
| CCn1c(=O)c(N2C[C@H](O)C3(CC3)C2)nc2ccccc21 | > 99.5 µM |
| CCc1n[nH]cc1-c1cccc([C@H](NC(=O)OCc2ccccc2)C(=O)Nc2cccc(CN)c2)c1 | > 99.5 µM |
| CCn1c(=O)c(N2C[C@@H]3[C@H](C2)[C@H]2CC[C@@H]3O2)nc2ccccc21 | > 99.5 µM |
| NCc1cccc(NC(=O)[C@H]2[C@H]3CCC[C@H]3[C@@H]2NC(=O)OCc2ccccc2)c1 | > 99.5 µM |
| NCc1cccc(NC(=O)C[C@H](NC(=O)OCc2ccccc2)c2ccc(C(F)(F)F)cc2)c1 | 58.1 µM |
| O=C(O)c1c(F)cc(F)cc1NS(=O)(=O)c1ccc(Oc2ccccc2Cl)cc1 | 41.5 µM |
| NC[C@H]1CC[C@H](NC(=O)[C@@H](NC(=O)OCc2ccccc2)c2ccc(OCc3ccccc3)cc2)CC1 | > 99.5 µM |
| N[C@@H](Cc1c[nH]cn1)C(=O)N1CCC2(CC1)OCCc1cc(O)ccc12 | > 99.5 µM |
| CN(C)CCNC(=O)[C@H](NC(=O)OCc1ccccc1)c1ccc(OCc2ccccc2)cc1 | > 99.5 µM |
| NCc1cccc(NC(=O)C[C@H](NC(=O)OCc2ccccc2)C2CCCCC2)c1 | 67.1 µM and 69.7 µM |
| O=C(N[C@@H](C(=O)NCC1CCNCC1)c1ccc(OCc2ccccc2)cc1)OCc1ccccc1 | > 99.5 µM |
| NCc1cccc(NC(=O)[C@H](NC(=O)Cn2cccn2)c2ccc(OCc3ccccc3)cc2)c1 | > 99.5 µM |
| NC[C@H]1CC[C@H](CNC(=O)[C@@H](NC(=O)OCc2ccccc2)c2ccc(OCc3ccccc3)cc2)CC1 | > 99.5 µM |
| C[C@]1(C(=O)N[C@H](C(=O)Nc2cccc(CN)c2)c2ccc(OCc3ccccc3)cc2)CCCO1 | > 99.5 µM |
| CCn1ccnc(N2CC(=O)[C@@H](c3c[nH]c4ccccc34)C2)c1=O | > 99.5 µM |
| O=S(=O)(Nc1ccc(Cl)cc1CN(CC1CC1)CC1CC1)c1ccc(Oc2ccccc2Cl)cc1 | 67.1 µM |
| O=C(NCc1nnn[nH]1)c1cc(Cl)ccc1NS(=O)(=O)c1ccc(Oc2ccccc2Cl)cc1 | 64.5 µM |
| NCc1cccc(NC(=O)C[C@H](NC(=O)OCc2ccccc2)c2ccc(Br)cc2)c1 | 51.8 µM |
| NCc1ccc(-c2ccc(OCC3CCNCC3)nc2-c2ccc(-c3ccoc3)cc2)cc1 | 67.1 µM |
